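Dose response: 5 concentrations. Exposure: 48 h. Format: 96-well plates. Endpoint: linear interpolation; highest concentration if not reached. GI50 marks 50% less growth.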 Active and inactive are the calls of the source. Rule as the data show it: active = GI50 up to about 1.1 µM and inactive = higher.
Key:
Experiment in all cases: NCI-60 cell line screen, 48 h
RPMI-8226 = test system: RPMI-8226
HT-29 = test system: HT-29
NCI/ADR-RES = test system: NCI/ADR-RES
SF-295 = test system: SF-295
EKVX = test system: EKVX
T47D = test system: T47D
M14 = test system: M14
ACHN = test system: ACHN
SNB-19 = test system: SNB-19
MCF7 = test system: MCF7
UACC-62 = test system: UACC-62
K562 = test system: K562
KM12 = test system: KM12
Hs-578T = test system: Hs-578T
MDA-MB-435 = test system: MDA-MB-435
HL-60 = test system: HL-60
Malme-3M = test system: Malme-3M
NCI-H522 = test system: NCI-H522
SK-OV-3 = test system: SK-OV-3
HCC 2998 = test system: HCC 2998
SR = test system: SR
SK-MEL-5 = test system: SK-MEL-5
SF-539 = test system: SF-539
MDA-N = test system: MDA-N
PC-3 = test system: PC-3
SN12C = test system: SN12C
SF-268 = test system: SF-268
SK-MEL-2 = test system: SK-MEL-2
NCI-H226 = test system: NCI-H226
HCT-15 = test system: HCT-15
OVCAR-4 = test system: OVCAR-4
NCI-H460 = test system: NCI-H460
SNB-75 = test system: SNB-75
HCT-116 = test system: HCT-116
A498 = test system: A498
NCI-H23 = test system: NCI-H23
RXF 393 = test system: RXF 393
OVCAR-3 = test system: OVCAR-3
UACC-257 = test system: UACC-257
UO-31 = test system: UO-31
HOP-62 = test system: HOP-62
COLO 205 = test system: COLO 205
CAKI-1 = test system: CAKI-1
MOLT-4 = test system: MOLT-4
BT-549 = test system: BT-549
786-0 = test system: 786-0
A549 = test system: A549
SW-620 = test system: SW-620
LOX IMVI = test system: LOX IMVI
DU-145 = test system: DU-145
HOP-92 = test system: HOP-92
TK-10 = test system: TK-10
IGROV-1 = test system: IGROV-1
MDA-MB-231 = test system: MDA-MB-231
U-251 = test system: U-251
OVCAR-5 = test system: OVCAR-5
OVCAR-8 = test system: OVCAR-8
CCRF-CEM = test system: CCRF-CEM
SK-MEL-28 = test system: SK-MEL-28

SMILES: CC(C)C(OC(=O)c1cc(NC(=S)c2ccccc2)ccc1Cl)C(C)C
- GI50 (RPMI-8226): 13.3 µM (inactive)
- GI50 (HT-29): 9.31 µM (inactive)
- GI50 (NCI/ADR-RES): 16.3 µM (inactive)
- GI50 (SF-295): 4.53 µM (inactive)
- GI50 (EKVX): 12.9 µM (inactive)
- GI50 (T47D): 7.85 µM (inactive)
- GI50 (M14): 31.7 µM (inactive)
- GI50 (ACHN): 14.9 µM (inactive)
- GI50 (SNB-19): 38.4 µM (inactive)
- GI50 (MCF7): 17.3 µM (inactive)
- GI50 (UACC-62): 11.8 µM (inactive)
- GI50 (K562): 25.7 µM (inactive)
- GI50 (KM12): 5.69 µM (inactive)
- GI50 (Hs-578T): 21.1 µM (inactive)
- GI50 (MDA-MB-435): 14.7 µM (inactive)
- GI50 (HL-60): 10.6 µM (inactive)
- GI50 (Malme-3M): 20.4 µM (inactive)
- GI50 (NCI-H522): 8.51 µM (inactive)
- GI50 (SK-OV-3): 32.4 µM (inactive)
- GI50 (HCC 2998): 12.4 µM (inactive)
- GI50 (SR): 11.9 µM (inactive)
- GI50 (SK-MEL-5): 14.2 µM (inactive)
- GI50 (SF-539): 24.4 µM (inactive)
- GI50 (MDA-N): 16.6 µM (inactive)
- GI50 (PC-3): 8.53 µM (inactive)
- GI50 (SN12C): 14.7 µM (inactive)
- GI50 (SF-268): 23 µM (inactive)
- GI50 (SK-MEL-2): 16 µM (inactive)
- GI50 (NCI-H226): 16 µM (inactive)
- GI50 (HCT-15): 9.27 µM
- GI50 (OVCAR-4): 17.6 µM (inactive)
- GI50 (NCI-H460): 14.1 µM (inactive)
- GI50 (SNB-75): 19.4 µM (inactive)
- GI50 (HCT-116): 12.3 µM (inactive)
- GI50 (A498): 21.1 µM (inactive)
- GI50 (NCI-H23): 6.5 µM (inactive)
- GI50 (RXF 393): 13.1 µM (inactive)
- GI50 (OVCAR-3): 16.4 µM (inactive)
- GI50 (UACC-257): 13.7 µM (inactive)
- GI50 (UO-31): 11.4 µM (inactive)
- GI50 (HOP-62): 29.6 µM (inactive)
- GI50 (COLO 205): 16.1 µM (inactive)
- GI50 (CAKI-1): 17.2 µM (inactive)
- GI50 (MOLT-4): 10.1 µM (inactive)
- GI50 (BT-549): 20.8 µM (inactive)
- GI50 (786-0): 16.7 µM (inactive)
- GI50 (A549): 21 µM (inactive)
- GI50 (SW-620): 21.8 µM (inactive)
- GI50 (LOX IMVI): 19.8 µM (inactive)
- GI50 (DU-145): 24.2 µM (inactive)
- GI50 (HOP-92): 8.39 µM (inactive)
- GI50 (TK-10): 21.5 µM (inactive)
- GI50 (IGROV-1): 33 µM (inactive)
- GI50 (MDA-MB-231): 20.2 µM (inactive)
- GI50 (U-251): 19.1 µM (inactive)
- GI50 (OVCAR-5): 42.7 µM (inactive)
- GI50 (OVCAR-8): 22.9 µM (inactive)
- GI50 (CCRF-CEM): 14.9 µM (inactive)
- GI50 (SK-MEL-28): 21.8 µM (inactive)

SMILES: c1c2c(cc3c1OCO3)-c1cc3ccc4c(c3c[n+]1CC2)OCO4 [COPTISINE CHLORIDE]
- GI50 (RPMI-8226): 0.711 µM (active)
- GI50 (HT-29): 5.65 µM (inactive)
- GI50 (NCI/ADR-RES): 0.348 µM (active)
- GI50 (SF-295): 0.927 µM (active)
- GI50 (EKVX): 7.71 µM (inactive)
- GI50 (T47D): 3.13 µM (inactive)
- GI50 (M14): 1 µM (active)
- GI50 (ACHN): 2.5 µM (inactive)
- GI50 (SNB-19): 1.22 µM (inactive)
- GI50 (MCF7): 1.24 µM (inactive)
- GI50 (UACC-62): 0.891 µM (active)
- GI50 (K562): 0.486 µM (active)
- GI50 (KM12): 0.925 µM (active)
- GI50 (Hs-578T): 1.38 µM (inactive)
- GI50 (MDA-MB-435): 0.308 µM (active)
- GI50 (HL-60): 0.406 µM (active)
- GI50 (Malme-3M): 0.259 µM (active)
- GI50 (NCI-H522): 0.311 µM (active)
- GI50 (SK-OV-3): 3.3 µM (inactive)
- GI50 (HCC 2998): 3.85 µM (inactive)
- GI50 (SR): 0.486 µM (active)
- GI50 (SK-MEL-5): 0.587 µM (active)
- GI50 (SF-539): 0.887 µM (active)
- GI50 (MDA-N): 0.299 µM (active)
- GI50 (PC-3): 0.944 µM (active)
- GI50 (SN12C): 2.09 µM (inactive)
- GI50 (SF-268): 2.36 µM (inactive)
- GI50 (SK-MEL-2): 0.555 µM (active)
- GI50 (NCI-H226): 1.92 µM (inactive)
- GI50 (HCT-15): 0.638 µM
- GI50 (OVCAR-4): 5.09 µM (inactive)
- GI50 (NCI-H460): 0.53 µM (active)
- GI50 (SNB-75): 1.28 µM (inactive)
- GI50 (HCT-116): 0.447 µM (active)
- GI50 (A498): 4.73 µM (inactive)
- GI50 (NCI-H23): 0.815 µM (active)
- GI50 (RXF 393): 1.99 µM (inactive)
- GI50 (OVCAR-3): 0.798 µM (active)
- GI50 (UACC-257): 1.95 µM (inactive)
- GI50 (UO-31): 0.857 µM (active)
- GI50 (HOP-62): 1.4 µM (inactive)
- GI50 (COLO 205): 3.56 µM (inactive)
- GI50 (CAKI-1): > 12.5 µM (inactive)
- GI50 (MOLT-4): 1.29 µM (inactive)
- GI50 (BT-549): > 5.85 µM (inactive)
- GI50 (786-0): 4.2 µM (inactive)
- GI50 (A549): 4.44 µM (inactive)
- GI50 (SW-620): 0.462 µM (active)
- GI50 (LOX IMVI): 1.01 µM (active)
- GI50 (DU-145): 1.3 µM (inactive)
- GI50 (HOP-92): 5.57 µM (inactive)
- GI50 (TK-10): > 12.5 µM (inactive)
- GI50 (IGROV-1): 2.04 µM (inactive)
- GI50 (MDA-MB-231): 1.13 µM (inactive)
- GI50 (U-251): 0.935 µM (active)
- GI50 (OVCAR-5): > 12.5 µM (inactive)
- GI50 (OVCAR-8): 1.16 µM (inactive)
- GI50 (CCRF-CEM): 0.764 µM (active)
- GI50 (SK-MEL-28): 1.2 µM (inactive)
